Test results reported in US20130157345A1, “STABILIZATION AND ACTIVATION OF PROTEASE FOR USE AT HIGH TEMPERATURE” (ECOLAB USA INC., priority 2011, published 2013).

Test system: protein (gelatin) layers of photographic film
Assay: Photographic film test: removal of gelatin protein layers by enzyme in heated water
Format: biochemical
Settings: 400 ppm additive, 160-170° F
Source text: Photographic film contains a layer of a binding agent that is a protein (gelatin) which is readily attacked and removed by protease under ambient conditions. The film has multiple colored layers of the gelatin binding agent which can serve as an indication of the degree of attack if exposed to suitable enzymes. Photographic film was used in experiments to show the ability of enzymes, proteases, to attach or remove the protein layer under various conditions.
In the experiments outlined in Table 1, a beaker was charged with 5 grain tap water. An activator, “Additive 1”, was added to the beaker with the water temperature adjusted to the temperature as shown in the “Temp (F) Additive 1” column. The solution was then adjusted for the film test to the temperature as shown in “Temp (F) Enzyme” and a protease enzyme and section of photographic film added. The solution was stirred for 5 minutes and the film recovered and wiped with a paper towel for visual examination.
The additive, enzyme and then the combination of protease enzyme and additives were heated to the temperatures indicated in the applicable columns to analyze the various conditions under which the protease enzyme was able to readily attack and removed the protein (gelatin) layers of the photographic film. […]

Compound	additive function as activator/stabilizer of enzymes at elevated temperatures
O=C(O)[C@@H]1CCCN1 [proline]	function to activate and/or stabilize enzymes
cocoamidyl propyl butane [CAPB]	function to activate and/or stabilize enzymes
